Each structure is given as a SMILES string.

Data set [1] deals with OCT1. On the set-up: method as in Furmanski et al., 2013. To be noted: ref Furmanski et al., 2013; cited from earlier work.
In a further data set the test system is YES1 / hOCT1. As to the kind of experiment: Chemical genetics: hOCT1 uptake assay in HEK293 cells transfected with wild-type YES1 or T348I gatekeeper mutant, then dasatinib. The data set is classed as cell-based, human. The settings on record: HEK293-hOCT1, dasatinib 1 µM 15 min, [14C] TEA uptake. On the procedure: (§1) The results were normalized to uptake values in cells stably transfected with an empty vector treated with vehicle alone (Supplementary Figure S1). Prior to cellular accumulation experiments, cells were grown to 90% confluence on poly-lysine coated multi-well plates. For uptake studies, cells were rinsed with warm PBS and incubated in the presence of a vehicle or inhibitor, prepared in serum and phenol red-free DMEM media for 15 min. Subsequently, media was removed followed by the addition of radiolabeled TEA and metformin along with inhibitor, and cellular uptake was measured after a 15-min co-incubation period. Total radioactivity originating from TEA and metformin was determined using liquid scintillation counting after lysing the cells with 1 N NaOH, a neutralizing step with 2 M HCl. A Pierce protein assay (Thermo Fisher Scientific, Waltham, MA) was used to normalize radioactivity readings to account for variation in cell number between samples.

For another data set, the target named is T1, OCT3 (Homo sapiens, UniProt O75751).
T1 sequence (O75751 1-556): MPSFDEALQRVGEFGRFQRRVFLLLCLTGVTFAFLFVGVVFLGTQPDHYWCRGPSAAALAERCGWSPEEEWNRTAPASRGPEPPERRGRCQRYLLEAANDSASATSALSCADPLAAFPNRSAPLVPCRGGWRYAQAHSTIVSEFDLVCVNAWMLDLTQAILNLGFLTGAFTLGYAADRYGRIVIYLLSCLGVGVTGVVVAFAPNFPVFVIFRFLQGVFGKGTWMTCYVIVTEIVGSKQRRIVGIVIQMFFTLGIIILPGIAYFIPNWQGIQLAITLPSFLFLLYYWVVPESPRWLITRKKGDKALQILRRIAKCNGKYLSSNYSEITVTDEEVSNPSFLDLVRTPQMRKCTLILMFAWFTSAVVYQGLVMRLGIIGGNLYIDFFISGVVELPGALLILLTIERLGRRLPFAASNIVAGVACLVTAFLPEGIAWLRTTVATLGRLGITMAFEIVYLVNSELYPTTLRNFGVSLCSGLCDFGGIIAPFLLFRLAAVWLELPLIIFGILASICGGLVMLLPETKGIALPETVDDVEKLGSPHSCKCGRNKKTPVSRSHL
As to the kind of experiment: OCT3 transport inhibition by TKIs (Supplementary Figure S2). The data set is classed as cell-based. As to the method:
as §1, with “Uptake assays were performed with radiolabeled TEA (2 µM) or metformin (5 µM) as described previously ([Sprowl et al., 2013]; [Pabla et al., 2015]) in the presence or absence of TKIs. The results” for “The results”

Data set [2] deals with OCT1. Kind of data set: Dose-response OCT1 uptake inhibition, summarised across mOCT1 and hOCT1 models and test substrates. The data set is classed as cell-based, human and mouse. On the procedure: (§2) Human embryonic kidney (HEK293) cells were obtained from the American Type Culture Collection (ATCC, Manassas, VA). HEK293 cells stably transfected with mouse OCT1 (mOCT1) or human OCT1 (hOCT1) were cultured in Dulbecco’s Modified Eagle Media (DMEM) media supplemented with 10% fetal bovine serum (FBS) and grown at 37°C in a humidified incubator containing 5% CO2. Radiolabeled [^14C] TEA and [^14C] metformin were obtained from American Radiochemicals (St. Louis, MO). Cellular uptake assays were performed 48 h following transient transfection by Lipofectamine 3000 Transfection Reagent (Thermo Fisher Scientific, Waltham, MA). ON-TARGETplus Human YES1 siRNA was obtained from Dharmacon (Lafayette, CO). RNA extraction kits were obtained from Omega Bio-tek (Norcross, GA).
as §1, with “Uptake assays were performed with radiolabeled TEA (2 µM) or metformin (5 µM) as described previously ([Sprowl et al., 2013]; [Pabla et al., 2015]) in the presence or absence of TKIs. The results” for “The results”

The test system of the next data set is OCT1 (mouse and human). The description is as above. In kind it is cell-based. The settings on record: mouse and human, probe [14C] TEA (2 µM) or [14C] metformin (5 µM); range over mOCT1/hOCT1 models and test substrates. On the procedure:
as §2
as §1, with “Uptake assays were performed with radiolabeled TEA (2 µM) or metformin (5 µM) as described previously ([Sprowl et al., 2013]; [Pabla et al., 2015]) in the presence or absence of TKIs. The results” for “The results”

A further data set deals with T2, human OCT1 (hOCT1) (Homo sapiens, UniProt O15245).
T2 construct: expressed in transfected cells
T2 sequence (O15245 1-554): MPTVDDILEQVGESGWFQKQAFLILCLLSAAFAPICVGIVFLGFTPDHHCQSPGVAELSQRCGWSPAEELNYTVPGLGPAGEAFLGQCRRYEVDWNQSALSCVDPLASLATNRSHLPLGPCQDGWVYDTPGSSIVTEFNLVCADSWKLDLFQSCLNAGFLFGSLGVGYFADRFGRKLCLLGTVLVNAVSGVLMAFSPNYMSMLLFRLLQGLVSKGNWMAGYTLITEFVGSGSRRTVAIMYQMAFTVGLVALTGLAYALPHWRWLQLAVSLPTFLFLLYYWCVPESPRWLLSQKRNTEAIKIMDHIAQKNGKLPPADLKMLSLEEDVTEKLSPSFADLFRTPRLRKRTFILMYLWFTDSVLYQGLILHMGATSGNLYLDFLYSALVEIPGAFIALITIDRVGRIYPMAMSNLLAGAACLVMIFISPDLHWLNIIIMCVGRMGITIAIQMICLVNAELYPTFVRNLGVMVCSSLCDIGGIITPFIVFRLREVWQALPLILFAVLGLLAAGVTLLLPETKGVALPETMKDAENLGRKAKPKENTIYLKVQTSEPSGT
As to the kind of experiment: Cellular uptake of [14C] TEA or [14C] metformin in HEK293 cells overexpressing hOCT1, with or without inhibitor. The data set is classed as cell-based. To be noted: HEK293-hOCT1, TKI 10 µM, Figure 2D. As to the method:
as §2, §1

Consider `Cc1nc(Nc2ncc(C(=O)Nc3c(C)cccc3Cl)s2)cc(N2CCN(CCO)CC2)n1` [Dasatinib, dasatinib], for which the “transported substrate of OCT1” value with OCT1 [1] is recorded as “not themselves transported substrate”. In addition, in the data set on YES1 / hOCT1, the “dasatinib-mediated OCT1 inhibition in cells with TKI-resistant YES1 (T348I gatekeeper) mutant” value is listed as “rescue” and the “dasatinib-mediated OCT1 inhibition in cells with YES1 wild-type construct” value is given as “retained sensitivity”. In addition, the “OCT3 function in presence of TKI” value at OCT3 is “potently inhibiting”. Moreover, the OCT1 inhibition result with OCT1 [2] (Yes/No) is “Yes”. For the same compound, the “OCT1 function in dose-response experiments” value in the data set with OCT1 [2] (species-independent, regardless of test substrate) is listed as “potently inhibited”. In the data set on OCT1 (mouse and human), the IC50 at 15 min was […]. Further, the “OCT1 function (TEA transport) in presence of TKI” value on human OCT1 (hOCT1) is on record as “inhibit OCT1 function”.

For orientation: IC50 means the point on the concentration scale where inhibition reaches its midpoint. Low readings indicate higher potency, high ones lower potency.

The values above are taken from publication PMC8006202, “Influence of YES1 Kinase and Tyrosine Phosphorylation on the Activity of OCT1” (Frontiers in Pharmacology, 2021).
